Tests used:
Assay type in all cases: in vivo
[1] = test system: cocklebur (Xanthium pensylvanicum); test: Preemergence herbicidal activity, cocklebur; conditions: Xanthium strumarium, pre-emergence, 336 h; for pest or weed control at 2241.7 g/ha: 2 lb/A
Procedure: (§1) Using the procedure described below, compounds of the invention are evaluated for control of several of the following plant species:
(§2) The following est procedure is employed. Seeds of selected crops and weeds are planted in soil in flats. For preemergence tests, the flats are treated with the test compound immediately after the planting. For postemergence tests, the seeds are allowed to germinate, and after two weeks the flats are treated with the test compound. The compound to be evaluated is dissolved in acetone, diluted with water, and sprayed over the flats using a carrier volume equivalent to 50 gallons per acre at the rate of application (pounds per acre, lb/A.) specified in the tables. About two weeks after the application of the test compound, the state of growth of the plants is observed and the phytotoxic effect of the compound is evaluated. Tables III and IV give the average percent control achieved by test compounds in terms of the percent of the plants which are killed by the compounds.

[2] = test system: marigold (Tagetes spp.); test: Preemergence herbicidal activity, marigold; conditions: pre-emergence, 336 h; for pest or weed control at 2241.7 g/ha: 2 lb/A
Procedure: as §1, §2

[3] = test system: morningglory (Ipomoca spp.); test: Preemergence herbicidal activity, morningglory
Procedure: as §1, §2

[4] = test system: tomato (Lycopersicon esculentum); test: Preemergence herbicidal activity, tomato; conditions: Solanum lycopersicum, pre-emergence, 336 h, Pre; for pest or weed control at 2241.7 g/ha: 2 lb/A
Procedure: as §1, §2

[5] = test system: velvetleaf (Abutilon theophrasti); test: Preemergence herbicidal activity, velvetleaf; conditions: Abutilon theophrasti, pre-emergence, 336 h, Pre; for pest or weed control at 2241.7 g/ha: 2 lb/A
Procedure: as §1, §2

[6] = test system: barnyardgrass (Echinochloa crusgalli); test: Preemergence herbicidal activity, barnyardgrass; conditions: Echinochloa crus-galli, pre-emergence, 336 h, Pre; for pest or weed control at 2241.7 g/ha: 2 lb/A
Procedure: as §1
(§3) The following est procedure is employed. Seeds of selected crops and weeds are planted in soil in flats. For preemergence tests, the flats are treated with the test compound immediately after the planting. For postemergence tests, the seeds are allowed to germinate, and after two weeks the flats are treated with the test compound. The compound to be evaluated is dissolved in acetone, diluted with water, and sprayed over the flats using a carrier volume equivalent to 50 gallons per acre at the rate of application (pounds per acre, lb/A.) specified in the tables.

[7] = test system: downybrome (Bromus tectorum); test: Preemergence herbicidal activity, downybrome; conditions: Pre
Procedure: as §1, §2

[8] = test system: foxtail (Setaria spp.); test: Preemergence herbicidal activity, foxtail; conditions: Setaria, pre-emergence, 336 h, Pre; for pest or weed control at 2241.7 g/ha: 2 lb/A
Procedure: as §1, §2

[9] = test system: yellow nutsedge (Cyperus esculentus); test: Preemergence herbicidal activity, yellow nutsedge; conditions: Cyperus, pre-emergence, 336 h; for pest or weed control at 2241.7 g/ha: 2 lb/A
Procedure: as §1, §2

[10] = test system: wild oats (Avena fatua); test: Preemergence herbicidal activity, wild oats; conditions: Pre
Procedure: as §1, §2

[11] = test system: cocklebur (Xanthium pensylvanicum); test: Postemergence herbicidal activity, cocklebur
Procedure: as §1, §2

[12] = test system: marigold (Tagetes spp.); test: Postemergence herbicidal activity, marigold
Procedure: as §1, §2

[13] = test system: morningglory (Ipomoca spp.); test: Postemergence herbicidal activity, morningglory
Procedure: as §1, §2

[14] = test system: tomato (Lycopersicon esculentum); test: Postemergence herbicidal activity, tomato; conditions: Post
Procedure: as §1, §2

[15] = test system: velvetleaf (Abutilon theophrasti); test: Postemergence herbicidal activity, velvetleaf
Procedure: as §1, §3

[16] = test system: barnyardgrass (Echinochloa crusgalli); test: Postemergence herbicidal activity, barnyardgrass; conditions: Echinochloa crus-galli, post-emergence, 336 h, Post; for pest or weed control at 2241.7 g/ha: 2 lb/A
Procedure: as §1, §3

[17] = test system: downybrome (Bromus tectorum); test: Postemergence herbicidal activity, downybrome; conditions: Post
Procedure: as §1, §2

[18] = test system: foxtail (Setaria spp.); test: Postemergence herbicidal activity, foxtail; conditions: Setaria, post-emergence, 336 h, Post; for pest or weed control at 2241.7 g/ha: 2 lb/A
Procedure: as §1, §2

[19] = test system: yellow nutsedge (Cyperus esculentus); test: Postemergence herbicidal activity, yellow nutsedge; conditions: Cyperus, post-emergence, 336 h; for pest or weed control at 2241.7 g/ha: 2 lb/A
Procedure: as §1, §2

[20] = test system: wild oats (Avena fatua); test: Postemergence herbicidal activity, wild oats; conditions: Post
Procedure: as §1, §2

[21] = Ipomoea, pre-emergence, 336 h, 2 lb/A
[22] = Bromus tectorum, pre-emergence, 336 h, 2 lb/A
[23] = Avena fatua, pre-emergence, 336 h, 2 lb/A, read-out: % control, Wild oat
[24] = Xanthium strumarium, post-emergence, 336 h, 2 lb/A
[25] = Ipomoea, post-emergence, 336 h, 2 lb/A
[26] = Solanum lycopersicum, post-emergence, 336 h, 2 lb/A
[27] = Abutilon theophrasti, post-emergence, 336 h, 2 lb/A
[28] = Bromus tectorum, post-emergence, 336 h, 2 lb/A
[29] = Avena fatua, post-emergence, 336 h, 2 lb/A, read-out: % control, Wild oat

Compound	pest or weed control at 2241.7 g/ha [1] [%]	pest or weed control at 2241.7 g/ha [2] [%]	pest or weed control at 2241.7 g/ha [3, 21] [%]	pest or weed control at 2241.7 g/ha [4] [%]	pest or weed control at 2241.7 g/ha [5] [%]	pest or weed control at 2241.7 g/ha [6] [%]	pest or weed control at 2241.7 g/ha [7, 22] [%]	pest or weed control at 2241.7 g/ha [8] [%]	pest or weed control at 2241.7 g/ha [9] [%]	pest or weed control at 2241.7 g/ha [10, 23] [%]	pest or weed control at 2241.7 g/ha [11, 24] [%]	pest or weed control at 2241.7 g/ha ([12]; post-emergence, 336 h, 2 lb/A) [%]	pest or weed control at 2241.7 g/ha [13, 25] [%]	pest or weed control at 2241.7 g/ha [14, 26] [%]	pest or weed control at 2241.7 g/ha [15, 27] [%]	pest or weed control at 2241.7 g/ha [16] [%]	pest or weed control at 2241.7 g/ha [17, 28] [%]	pest or weed control at 2241.7 g/ha [18] [%]	pest or weed control at 2241.7 g/ha [19] [%]	pest or weed control at 2241.7 g/ha [20, 29] [%]	other results
CCOC(=O)COc1ccc(Oc2ccc(C(F)(F)F)cc2Cl)cc1 [Example 11]	0	0	0	0	0	0	0	30	0	0	50	0	30	0	20	20	0	30	0	40	–
CCNC(=O)C(C)Oc1ccc(Oc2ccc(C(F)(F)F)cc2Cl)cc1 (stereo not drawn) [Example 21]	0	0	0	0	0	100	90	100	0	40	0	0	0	0	0	100	30	100	0	99	–
CCOC(=O)C(C)Oc1ccc(Sc2cccc(C(F)(F)F)c2)cc1 (stereo not drawn) [Example 45, Ethyl 2-[4-(3-trifluoromethylphenylthio)phenoxy] propionate]	–	–	–	–	–	–	–	–	–	–	–	–	–	–	–	–	–	–	–	–	pest or weed control at 8966.8 g/ha ([1]; 8 lb/A): 0%; pest or weed control at 8966.8 g/ha ([2]; 8 lb/A): 0%; pest or weed control at 8966.8 g/ha ([3]; Ipomoea, pre-emergence, 336 h, 8 lb/A): 0%; pest or weed control at 8966.8 g/ha ([4]; 8 lb/A): 0%; pest or weed control at 8966.8 g/ha ([5]; 8 lb/A): 0%; pest or weed control at 8966.8 g/ha ([6]; 8 lb/A): 0%; pest or weed control at 8966.8 g/ha ([7]; Bromus tectorum, pre-emergence, 336 h, 8 lb/A): 0%; pest or weed control at 8966.8 g/ha ([8]; 8 lb/A): 0%; pest or weed control at 8966.8 g/ha ([9]; 8 lb/A): 0%; pest or weed control at 8966.8 g/ha ([10]; Avena fatua, pre-emergence, 336 h, 8 lb/A, read-out: % control, Wild oat): 0%; pest or weed control at 4483.4 g/ha ([11]; Xanthium strumarium, post-emergence, 336 h, 4 lb/A): 0%; pest or weed control at 4483.4 g/ha ([12]; post-emergence, 336 h, 4 lb/A): 0%; pest or weed control at 4483.4 g/ha ([13]; Ipomoea, post-emergence, 336 h, 4 lb/A): 0%; pest or weed control at 4483.4 g/ha ([14]; Solanum lycopersicum, post-emergence, 336 h, 4 lb/A): 80%; pest or weed control at 4483.4 g/ha ([15]; Abutilon theophrasti, post-emergence, 336 h, 4 lb/A): 0%; pest or weed control at 4483.4 g/ha ([16]; 4 lb/A): 20%; pest or weed control at 4483.4 g/ha ([17]; Bromus tectorum, post-emergence, 336 h, 4 lb/A): 20%; pest or weed control at 4483.4 g/ha ([18]; 4 lb/A): 30%; pest or weed control at 4483.4 g/ha ([19]; 4 lb/A): 0%; pest or weed control at 4483.4 g/ha ([20]; Avena fatua, post-emergence, 336 h, 4 lb/A, read-out: % control, Wild oat): 20%
CC(Oc1ccc(Oc2ccc(C(F)(F)F)cc2Cl)cc1)C(=O)O (stereo not drawn) [Example 6, 2-[4-(2-Chloro-4-trifluoromethylphenoxy)phenoxy] propionic acid]	0	0	–	0	0	100	–	100	0	–	–	–	–	–	–	100	–	95	0	–	% control, Morningglory ([3]; Pre, 2 lb/A): 0%; % control, Downybrome ([7]; 2 lb/A): 40%; % control, Wild oat ([10]; 2 lb/A): 20%; % control, Cocklebur ([11]; Post, 2 lb/A): 50%; % control, Marigold ([12]; Post, 2 lb/A): 20%; % control, Morningglory ([13]; Post, 2 lb/A): 40%; % control, Tomato ([14]; 2 lb/A): 80%; % control, Velvetleaf ([15]; Post, 2 lb/A): 20%; % control, Downybrome ([17]; 2 lb/A): 30%; % control, Wild oat ([20]; 2 lb/A): 95%
C=CCOC(=O)C(C)Oc1ccc(Oc2ccc(C(F)(F)F)cc2Cl)cc1 (stereo not drawn) [Example 24]	100	0	0	0	0	100	99	100	30	80	20	50	20	95	80	100	100	100	0	100	–
COC(=O)C(C)Oc1ccc(Oc2ccc(C(F)(F)F)cc2Cl)cc1 (stereo not drawn) [Example 4, Methyl 2-[4-(2-chloro-4-trifluoromethylphenoxy)phenoxy] propionate]	0	0	0	0	20	100	0	100	0	40	100	30	20	60	80	100	99	100	0	100	–

From US4335249A, “Herbicidal diphenyl ethers, sulfides, sulfoxides and sulfones” (Rohm and Haas Company, priority 1976, dated 1982)
